Reference: patent US20120316106A1, “SYNERGISTIC ANTIBIOTIC COMBINATIONS AND DERIVATIVES” (YEDA RESEARCH AND DEVELOPMENT CO. LTD., priority 2009, published 2012)
“Also recorded” adds a separate entry of the source. Where two headings read alike, the source gives them in different places.

Legend:
[1] = tested on: E. coli cell-free transcription-translation system; assay: Inhibition of E. coli cell-free transcription-translation (firefly luciferase readout); assay type: biochemical
Procedure: (§1) To address this question, it was first verified that LM binds to the ribosome and inhibits protein synthesis. […] RNA probing was then utilized to follow the binding of LC and LM to the ribosome. For the consistency of structural data, RNA probing experiments were carried out using D. radiodurans large ribosomal subunits. Binding of LC and LM was analyzed using chemical modifying reagents 1-cyclohexyl-3-(2-morpholinoethyl) carbodiimide metho-p-toluene sulfonate (CMCT) and dimethyl sulfate (DMS).
(§2) Antibiotic binding and inhibition of cell-free translation were determined as described in (Xiong, L. et al., 2005, Antimicrob Agents Chemother 49, 281-288). Inhibition of the peptidyl transferase reaction by LC was performed and analyzed as described in. The data were analyzed using Prism 4 (GraphPad Software). RNA probing was carried out as described in (Moazed, D. and Noller, H. F., 1987, Biochemie 69, 879-884) using D50S.
The E. coli cell-free transcription-translation system for circular DNA (Promega) was pre-incubated with varying concentrations of antibiotics for 5 min at 20° C. The reactions (10 μl final volume) were initiated by adding 0.64 μg of pBestLuc plasmid DNA (Promega). Reactions were incubated for 40 min at 20° C. and stopped by chilling on ice. The activity of firefly luciferase synthesized in the reaction was determined in 96-well plates using Bright-Glo Luciferase Assay System (Promega) as recommended by the manufacturer.

[2] = tested on: D. radiodurans 50S ribosomal subunits (23S rRNA); assay: RNA probing (chemical footprinting) of 23S rRNA with CMCT and DMS; assay type: binding; conditions: LC 50 μM, LM 500 μM, D50S 200 nM; for Protection of 23S rRNA residues from CMCT modification: ERY 50 μM
Procedure: as §1
Similar to ERY and other 14 member-ring macrolides, binding of LM results in protection of U2609 from CMCT modification and of A2058 and A2059 from DMS chemical modification performed on the 23S rRNA of D. Radiodurans in complex with the combinations of the antibiotics (FIGS. 6C,D). The idiosyncratic protections of 23S rRNA residues were exploited against CMCT modification, afforded by LC and LM, to interrogate their simultaneous interaction with the ribosome. […] However, the accessibility of these residues to CMCT is not affected by LM or ERY (FIG. 6). […] In contrast, and in agreement with the binding experiments, the LC-mediated protection of U2506 and U2585 is partially relieved upon addition of ERY (FIG. 6D) and ERY-dependent protection of U2609 is partly reversed when LC is present. Thus, while LC and ERY compete for the binding to the ribosome, LC and LM can bind simultaneously to their respective targets in the PTC and NPET.
as §2
RNA probing was carried out essentially as described (16, 46) using D. radiodurans 50S ribosomal subunits at 200 nM concentration and antibiotics at the following concentrations: LC—50 μM, LM—500 μM, ERY—50 μM. Prior to addition of the modifying reagents, ribosomal subunits were pre-incubated with the drug 10 min at 37° C. and then 10 min at 20° C.

[3] = tested on: Staphylococcus aureus 70S ribosomes; assay: Inhibition of peptidyl transferase (puromycin) reaction, 70S ribosomes; assay type: biochemical; conditions: S. aureus 70S ribosomes, FIG. 5B; read-out: IC50, inhibition of puromycin reaction (peptide bond formation)
Procedure: as §2
(§3) In the reaction catalyzed by large ribosomal subunits, D. radiodurans 50S subunits (200 nM final concentration) were combined in 50 μl of the reaction buffer (20 mM Tris-HCl, pH 8.0, 20 mM MgCl2, 400 mM KCl) with 28 nM [^3H]-fMet-tRNA, 1 mM puromycism at varying concentrations of LC. Reactions were initiated by addition of 25 μl methanol and incubated on ice for 30 min. Reactions were stopped and analyzed as described (Maguire et al., 2005, Mol Cell 20, 427-435). In the ribosome-based puromycin assay, 70S ribosomes of S. aureus (at a final concentration of 200 nM) were preincubated for 15 min at 37° C. in 50 μl of polyamine buffer (20 mM HEPES-KOH, pH 7.6, 6 mM Mg-acetate, 150 mM NH4Cl, 4 mM β-mercaptoethanol, 2 mM spermidine, 0.05 mM spermine) with 600 nM mRNA AAGGAGAUAAACAAUGGGU and 28 nM [^3H]-fMet-tRNA. After addition of varying concentrations of LC, puromycin was added to the final concentration of 0.5 mM and reactions were incubated for 15 m in at 37° C. […]

[4] = molecular target: large ribosomal subunits of D. radiodurans; assay: Inhibition of peptidyl transferase (puromycin) reaction, isolated large subunits; assay type: biochemical; conditions: FIG. 5B, read-out: IC50, inhibition of puromycin reaction (peptide bond formation)
Procedure: as §2, §3

[5] = molecular target: D. radiodurans 50S subunits; assay: Competition with 14C-ERY for binding to 50S subunits; conditions: 0.1 μM 50S, 0.1 μM 14C-erythromycin, FIG. 5C; read-out: IC50, displacement of 14C-ERY from D50S
Text: S. rochei secretes two antibiotics, a 17-member ring macrocyclic LC and a 14-member ring macrolide, lankamycin (LM). LM is structurally similar to ERY (FIG. 1) and thus it was assumed that it is likely to bind to the ribosome at the site and orientation similar to ERY, namely at the NPET in immediate proximity to the PTC, the LC binding site. […] These observations raised the question whether, similarly to ERY, LM would also compete with LC for ribosome binding.
as §2
D. radiodurans 50S subunits (0.1 μM) were preincubated 15 min at 37° C. with 0.1 μM of ^14C-erthromycin (48.8 mCi/mmol, Perkin Elmer) in 100 μl binding buffer (20 mM Tris-HCl, pH 7.5, 10 mM MgCl2, 250 mM NH4Cl, 6 mM β-mercaptoethanol). […] The ribosome-antibiotic complexes were purified by gel filtration in BioGel P30 spin columns as described (Xiong, L. et al. ibid) and the amount of ribosome-bound radioactivity was measured by scintillation counting.

Gram-positive bacteria = conditions: background statement; cited from earlier work
[6] = tested on: eukaryotic cell-free translation; conditions: background statement; cited from earlier work
[7] = background statement; cited from earlier work
[8] = Table 2, read-out: [IC50] for antibiotic inhibition of cell free translation
[9] = FIG. 5A / 5D, read-out: IC50, inhibition of bacterial (E. coli) cell-free transcription-translation

SMILES | IC50 [1, 8] [nM] | Protection of 23S rRNA residues from CMCT modification [2] | IC50 [1, 9] [nM] | Protection of 23S rRNA residues from DMS modification [2] | Antibiotic activity against Gram-positive bacteria (Gram-positive bacteria) | further results
CC[C@H]1OC(=O)[C@H](C)[C@@H](O[C@H]2C[C@@](C)(OC)[C@@H](O)[C@H](C)O2)[C@H](C)[C@@H](O[C@@H]2O[C@H](C)C[C@H](N(C)C)[C@H]2O)[C@](C)(O)C[C@@H](C)C(=O)[C@H](C)[C@@H](O)[C@]1(C)O [ERY, erythromycin, reference compound] | 200 | strongly protect U2609 |  |  |  | 
CC(=O)C(=O)N[C@@H]1/C=C(C)/C=C/[C@@H](O)C/C=C(C)/C=C/[C@@H](O)C[C@H]2OC(=O)[C@]1(C)C(=O)[C@@H]2C [LC, Lankacidin C] |  | shields U2506 and U2585 from alterations; also recorded: no effect on this nucleotide | 1500 ± 100 | A2059 became partially protected from DMS whereas modification of A2058 was increased | inhibits growth of Gram-positive bacteria | IC50 [3]: 320 ± 20 nM; IC50 [4]: 10000 ± 6000 nM; IC50 [5]: 355 ± 26 nM; Effect on eukaryotic cell-free translation [6]: little effect
CO[C@H]1C[C@@H](C)O[C@@H](O[C@@H]2[C@@H](C)[C@H](O[C@H]3C[C@@](C)(OC)[C@H](OC(C)=O)[C@H](C)O3)[C@@H](C)C(=O)O[C@H]([C@@H](C)[C@H](C)O)[C@H](C)[C@H](OC(C)=O)[C@@H](C)C(=O)[C@@](C)(O)C[C@@H]2C)[C@@H]1O [LM, lankamycin] |  | strongly protect U2609 | 275000 ± 36000 | protects A2059 and A2058 from DMS modification | weak antibiotic activity | Toxicity in animal models [7]: low toxicity
CC1=C\[C@@H](O)CC(=O)Cc2nc(co2)C(=O)N2CCC=C2C(=O)O[C@H](C(C)C)[C@H](C)/C=C/C(=O)NC\C=C\1 [Virginiamycin M] | 800 |  |  |  |  | 
CC[C@H]1NC(=O)[C@@H](NC(=O)c2ncccc2O)[C@@H](C)OC(=O)[C@H](c2ccccc2)NC(=O)[C@@H]2CC(=O)CCN2C(=O)[C@H](Cc2ccccc2)N(C)C(=O)[C@@H]2CCCN2C1=O [Virginiamycin S] | 2500 |  |  |  |  | 
